Data on three molecules can be found in US20240059725A1, “COUMARIN COMPOUNDS AND A PROCESS FOR PREPARATION THEREOF” (priority 2021, published 2024).

Molecules are shown by their SMILES. In brackets after ≈: the same amount, converted by molar mass.

The subject of data set [1] is Human colon carcinoma (HCT-116) cell line. The experiment in a line: Anticancer activity, MTT assay against HCT-116. The format is cell-based. The settings on record: for IC50: Homo sapiens, HCT-116, interpolated from graph (FIG. 5). How it is done:
(§1) The anticancer activity of the compound (3) denoted as “P” and compound (4) denoted as “DP” was assessed invitro by MTT 3-(4,5-dimethylthiazol-2-yl)-2,5-diphenyltetrazolium bromide assay against Human colon carcinoma (HCT-116) cell lines and Human breast adenocarcinoma (MDA-MB-468) respectively.
(§2) RPMI-1640, fetal bovine serum (FBS), penicillin, streptomycin was procured from HiMedia (Mumbai, India). Doxorubicin, MTT 3-(4,5-dimethylthiazol-2-yl)-2,5-diphenyltetrazolium bromide were procured from Sigma Aldrich (USA). The chemicals used were of analytical or HPLC grade. Human breast adenocarcinoma (MDA-MB-468), Human colon carcinoma (HCT-116) was procured from NCCS, Pune, India. The cell line was grown in the RPMI-1640 with 2 mM L-glutamine, supplemented with 10% FBS, penicillin (100 IU/mL) and streptomycin (100 μg/mL) at 37° C. in a 95% humidified CO2 incubator with 5% CO2 atmosphere. The cell lines were passaged twice weekly for maintaining sub-confluent state.
(§3) MTT assay was used as cell viability assay. The principle of the assay lies in the fact that the MTT is reduced to formazan crystals by mitochondrial dehydrogenase of the viable cells. The anticancer activity of compounds (3) and (4) was assessed invitro by MTT 3-(4,5-dimethylthiazol-2-yl)-2,5-diphenyltetrazolium bromide assay based on the methods by Mosmann, T and Bose et.al. (Mosmann, T. Journal of Immunological methods. 1983, 65, 55-63; and Bose, D. S.; Idrees, M.; Jakka, N. M.; Rao, J. V. J. Comb. Chem. 2010, 12, 100-110). Doxorubicin (DXN) a known anticancer drug was used as a reference compound in the assay. The treated and untreated cells were washed with PBS (Phosphate buffer saline) and MTT (100 μg/ml) was added and incubated at 37° C. for 5 hr. The MTT was then removed, and the formazan crystals were dissolved by adding DMSO. The absorbance at 540 nm represents the viable cells. The absorbance was recorded using Multiskan spectrum, Thermo scientific. […] The absorbance from the untreated cells was defined as 100% viable cells. The % viable cells were plotted (Y-axis) against concentration (X-axis). The IC50 values were interpolated from the graphs of FIGS. 5 and 6.
Background: Tetrazolium dyes change colour on reduction, which living cells bring about.

Data set [2] can be described thus: Cytotoxicity MTT assay in HEK 293 cell line. The note with it: human, HEK 293 cells, 48 hr of treatment, read-out: IC-50 value (cytotoxicity). The format is cell-based. Here is the method:
Human embryonic kidney HEK 293 cell line were cultured in complete DMEM (Dulbecco's modified eagle medium) high glucose medium with 10% foetal bovine serum and 1% Penicillin Streptomycin and grown at 37° C.in a humidified incubator with 5% CO2. The cells were grown in T-25 flasks till about 80% confluency and 5000cells/well were seeded in a 96 well cell culture plate.
After 24 hr the cells were treated with all the concentrations of the drug (compound (4)) in triplicates and incubated for 48 hr.
After 48 hr of incubation MTT was added at a concentration of 0.5 mg/ml and incubated at 37° C. for 4 hr. After 4 hr the media was discarded from each well and DMSO was added. After 30 mins of incubation at 37° C.the colorimetric data was taken at 570 nm.

The subject of data set [3] is Human breast adenocarcinoma (MDA-MB-468) cell line. The experiment in a line: Anticancer activity, MTT assay against MDA-MB-468. The format is cell-based. The note with it: for IC50: Homo sapiens, MDA-MB-468, interpolated from graph (FIG. 6). Here is the method:
as §1, §2, §3

The test system of data set [4] is HEK cell line. Put plainly: ROS production in HEK cell line. The format is cell-based, Human.
Data set [5] concerns RAW 264.7 cells. The experiment in a line: Flow cytometry analysis of Reactive Oxygen Species production (DCFDA) in LPS induced RAW cell line. The format is cell-based. The settings on record: RAW cell line treated along with LPS, 48 hours. How it is done: RAW cell line was cultured in a T 25 flask in DMEM. After the cells reached confluency evel up to 90 percent, they were seeded in 6 well plates at 1 lakh cells/well. After adhesion of cells drugs were treated along with LPS and kept for 48 hours.
Flow cytometry analysis of Reactive Oxygen Species production on RAW cell line:
After 48 hr of treatment cells were harvested and stained with DCFDA and run-on flow cytometer.

Consider `CC1(C)OC2OC(COC(=O)c3cc4ccccc4oc3=O)C3OC(C)(C)OC3C2O1` (stereo not drawn) [Compound (3)], for which the “Percentage of cell death” value came to 25.81 ± 0.015% in data set [1] (HCT-116, 1.0 μg/mL); 44.01 ± 0.028% in data set [1] (HCT-116, 2.0 μg/mL); 61.45 ± 0.006% in data set [1] (HCT-116, 5.0 μg/mL); 75.01 ± 0.076% in data set [1] (HCT-116, 10.0 μg/mL); 88.64 ± 0.018% in data set [1] (HCT-116, 25.0 μg/mL). In data set [1], this molecule returned an IC50 of 3.8 mg/L (≈ 8.79 µM).
As for `O=C(OCC1OC(O)C(O)C(O)C1O)c1cc2ccccc2oc1=O` (stereo not drawn) [Compound (4)], in data set [2], the IC50 at 48 h is over 1000 mg/L. Moreover, the IC50 in data set [3] is 3.2 mg/L (≈ 9.08 µM). Besides, the “Percentage of cell death” value in data set [3] (MDA-MB-468, 1.0 μg/mL) is 25.71 ± 0.003%; in data set [3] (MDA-MB-468, 2.0 μg/mL), 42.27 ± 0.026%; in data set [3] (MDA-MB-468, 5.0 μg/mL), 66.49 ± 0.007%; in data set [3] (MDA-MB-468, 10.0 μg/mL), 78.66 ± 0.018%; in data set [3] (MDA-MB-468, 25.0 μg/mL) it was 86.10 ± 0.015%. The ROS production result is on record as “no ROS production” in data set [4] and “able to produce ROS in all concentrations” in data set [5].
With `COc1cccc2c1C(=O)c1c(O)c3c(c(O)c1C2=O)C[C@@](O)(C(=O)CO)C[C@@H]3O[C@H]1C[C@H](N)[C@H](O)[C@H](C)O1` [DXN, Doxorubicin, reference compound], the IC50 in data set [3] and in data set [1] was 5 mg/L (≈ 9.2 µM) in each case. Further, the “Percentage of cell death” value in data set [3] (MDA-MB-468, 1.0 μg/mL) is 16.12 ± 0.001%; in data set [3] (MDA-MB-468, 2.0 μg/mL), 31.68 ± 0.012%; in data set [3] (MDA-MB-468, 5.0 μg/mL), 52.34 ± 0.015%; in data set [3] (MDA-MB-468, 10.0 μg/mL) it was 63.76 ± 0.0031%; in data set [3] (MDA-MB-468, 25.0 μg/mL), 73.45 ± 0.060%; in data set [1] (HCT-116, 1.0 μg/mL), 16.12 ± 0.001%. The “Percentage of cell death” value amounted to 31.68 ± 0.012% in data set [1] (HCT-116, 2.0 μg/mL); 52.34 ± 0.015% in data set [1] (HCT-116, 5.0 μg/mL); 63.76 ± 0.0031% in data set [1] (HCT-116, 10.0 μg/mL); 73.45 ± 0.060% in data set [1] (HCT-116, 25.0 μg/mL).
